pEC50, pKd: −log10 of the molar value.
What was measured:
[1] = test system: Glo-Response ARE-luc2P HEK293 cell line; test: ARE luciferase reporter cell-based assay; conditions: Homo sapiens, HEK293, 24 h, average of results obtained;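 further: luciferase signal tracks Nrf2 activation of the ARE once compounds disrupt KEAP1-Nrf2 binding, read with One-Glo reagent, DMSO serving as low control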
[2] = biological target: Kelch domain of human KEAP1 (321-624 aa) (Homo sapiens (Human), UniProt Q14145); test: KEAP1 KELCH ThermoFluor binding assay; conditions: KEAP Kelch […], 1,8-ANS, pH 7.0, average of results obtained, read-out: Tf Kd;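 further: Ligand-induced melting temperature shift of E. coli-expressed KEAP1 Kelch protein, Kd estimated from concentration-response curves of ΔTm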
Kelch domain of human KEAP1 (321-624 aa), sequence (Q14145 321-624): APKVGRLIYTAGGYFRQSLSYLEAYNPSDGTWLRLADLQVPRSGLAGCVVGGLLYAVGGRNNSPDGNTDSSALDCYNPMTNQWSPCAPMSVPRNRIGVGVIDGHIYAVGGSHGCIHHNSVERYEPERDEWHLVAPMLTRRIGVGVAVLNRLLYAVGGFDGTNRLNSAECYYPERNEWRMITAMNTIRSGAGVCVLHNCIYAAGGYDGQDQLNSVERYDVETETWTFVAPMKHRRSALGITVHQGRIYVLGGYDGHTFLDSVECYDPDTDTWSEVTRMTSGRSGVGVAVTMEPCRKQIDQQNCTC

| pKd [2] | SMILES | pEC50 [1] |
| --- | --- | --- |
| > 9.00 | Cc1ccc(C(c2ccc3c(nnn3CC3CC3)c2C)C(C)(C)C(=O)O)nc1CN1CC2(CCOCC2)Oc2nc(OCCN3CCOCC3)ccc2S1(=O)=O (centres unmarked) [Example 327, 3-(1-(Cyclopropylmethyl)-4-methyl-1H-benzo[d][1,2,3]triazol-5-yl)-2,2-dimethyl-3-(5-methyl-6-((7′-(2-morpholinoethoxy)-1′,1′-dioxido-2,3,5,6-tetrahydrospiro[pyran-4,4′-pyrido[2,3-b][1,4,5]oxathiazepin]-2′(3′H)-yl)methyl)pyridin-2-yl)propanoic Acid] | 8.16 |
| > 9.00 | CCn1nnc2c(C)c([C@H](CC(=O)O)c3ccc(C)c(CN4C[C@H]5CCCCN5c5ncccc5S4(=O)=O)n3)ccc21 (single isomer, unassigned) [Example 305, (*S)-3-(6-(((*R)-5,5-Dioxido-7,7a,8,9,10,11-hexahydro-6H-dipyrido[2,1-d:2′,3′-][1,2,5]thiadiazepin-6-yl)methyl)-5-methylpyridin-2-yl)-3-(1-ethyl-4-methyl-1H-benzo[d][1,2,3]triazol-5-yl)propanoic Acid] | 8.77 |
| > 9.00 | Cc1ccc(C(CC(=O)O)c2ccn3c(C(F)F)nnc3c2C)cc1CN1CC2(COC2)Oc2ccccc2S1(=O)=O (centres unmarked) [Example 466, 3-(3-(Difluoromethyl)-8-methyl-[1,2,4]triazolo[4,3-a]pyridin-7-yl)-3-(3-((1,1-dioxidospiro[benzo[b][1,4,5]oxathiazepine-4,3′-oxetan]-2(3H)-yl)methyl)-4-methylphenyl)propanoic Acid] | 6.91 |
| 9.79 | Cc1ccc([C@H](CC(=O)O)c2cc(OC(F)F)c3c(c2)nnn3C)cc1CN1C[C@H]2CCCCN2c2ncccc2S1(=O)=O (single isomer, unassigned) [Example 2, (*S)-3-(7-(Difluoromethoxy)-1-methyl-1H-benzo[d][1,2,3]triazol-5-yl)-3-(3-(((*R)-5,5-dioxido-7,7a,8,9,10,11-hexahydro-6H-dipyrido[2,1-d:2′,3′-f][1,2,5]thiadiazepin-6-yl)methyl)-4-methylphenyl)propanoic Acid] | 6.74 |
| > 9.00 | CCc1nnc2c(C)c([C@@H](CC(=O)O)c3ccc(C)c(CN4C[C@H]5CCCN5c5ccccc5S4(=O)=O)c3)ccn12 (single isomer, unassigned) [Example 279, (*S)-3-(3-(((R)-5,5-Dioxido-7a,8,9,10-tetrahydrobenzo[f]pyrrolo[2,1-d][1,2,5]thiadiazepin-6(7H)-yl)methyl)-4-methylphenyl)-3-(3-ethyl-8-methyl-[1,2,4]triazolo[4,3-a]pyridin-7-yl)propanoic Acid] | 6.63 |
| > 9.00 | Cc1ccc([C@@H](CC(=O)O)c2ccc3c(nnn3C3CC3)c2C)cc1CN1C[C@H]2CCCCN2c2ncccc2S1(=O)=O (single isomer, unassigned) [Example 213, (*R)-3-(1-Cyclopropyl-4-methyl-1H-benzo[d][1,2,3]triazol-5-yl)-3-(3-(((*R)-5,5-dioxido-7,7a,8,9,10,11-hexahydro-6H-dipyrido[2,1-d:2′,3′-f][1,2,5]thiadiazepin-6-yl)methyl)-4-methylphenyl)propanoic Acid] | 8.10 |
| > 9.00 | Cc1ccc(C(CC(=O)O)c2ccn3c(C(F)(F)F)nnc3c2C)cc1CN1CC2CCC(F)(F)CN2c2ncccc2S1(=O)=O (centres unmarked) [Example 452, 3-(3-((10,10-Difluoro-5,5-dioxido-7,7a,8,9,10,11-hexahydro-6H-dipyrido[2,1-d:2′,3′-f][1,2,5]thiadiazepin-6-yl)methyl)-4-methylphenyl)-3-(8-methyl-3-(trifluoromethyl)-[1,2,4]triazolo[4,3-a]pyridin-7-yl)propanoic Acid] | 6.94 |
| 4.84 | CCn1nnc2c(C)c([C@H](c3cnc(C)c(CN4CC5(CCOCC5)Oc5ncc(C)cc5S4(=O)=O)c3)C(C)(C)C(=O)O)ccc21 (single isomer, unassigned) [Example 63, (*R)-3-(1-Ethyl-4-methyl-1H-benzo[d][1,2,3]triazol-5-yl)-2,2-dimethyl-3-(6-methyl-5-((8′-methyl-1′,1′-dioxido-2,3,5,6-tetrahydrospiro[pyran-4,4′-pyrido[2,3-b][1,4,5]oxathiazepin]-2′(3′H)-yl)methyl)pyridin-3-yl)propanoic Acid] | 5.48 |
| > 9.00 | Cc1ccc([C@H](CC(=O)O)c2ccn3c(C(F)(F)F)nnc3c2C)cc1CN1CC2(COC2)Oc2ncccc2S1(=O)=O (single isomer, unassigned) [Example 260, (*S)-3-(3-((1′,1′-Dioxidospiro[oxetane-3,4′-pyrido[2,3-b][1,4,5]oxathiazepin]-2′(3′H)-yl)methyl)-4-methylphenyl)-3-(8-methyl-3-(trifluoromethyl)-[1,2,4]triazolo[4,3-a]pyridin-7-yl)propanoic Acid] | 7.00 |
| 4.49 | Cc1cnc2c(c1)S(=O)(=O)N(Cc1cc([C@H](c3ccn4c(C(F)(F)F)nnc4c3C)C(C)(C)C(=O)O)ccc1C)CC1(CNC1)O2 (single isomer, unassigned) [Example 343, (*R)-2,2-Dimethyl-3-(4-methyl-3-((8′-methyl-1′,1′-dioxidospiro[azetidine-3,4′-pyrido[2,3-b][1,4,5]oxathiazepin]-2′(3′H)-yl)methyl)phenyl)-3-(8-methyl-3-(trifluoromethyl)-[1,2,4]triazolo[4,3-a]pyridin-7-yl)propanoic Acid] | 5.80 |
| 8.47 | Cc1ccc([C@@H](CC(=O)O)c2ccn3c(C(F)(F)F)nnc3c2C)cc1CN1CC(C)(C)Oc2ccccc2S1(=O)=O (single isomer, unassigned) [Example 286, (*R)-3-(3-((4,4-Dimethyl-1,1-dioxido-3,4-dihydro-2H-benzo[b][1,4,5]oxathiazepin-2-yl)methyl)-4-methylphenyl)-3-(8-methyl-3-(trifluoromethyl)-[1,2,4]triazolo[4,3-a]pyridin-7-yl)propanoic Acid] | 6.30 |
| > 9.00 | Cc1ccc([C@H](CC(=O)O)c2ccn3c(C(F)(F)F)nnc3c2C)cc1CN1C[C@@H]2CCCCN2c2ncc(C#N)cc2S1(=O)=O (single isomer, unassigned) [Example 10, (*S)-3-(3-(((*S)-3-Cyano-5,5-dioxido-7,7a,8,9,10,11-hexahydro-6H-dipyrido[2,1-d:2′,3′-f][1,2,5]thiadiazepin-6-yl)methyl)-4-methylphenyl)-3-(8-methyl-3-(trifluoromethyl)-[1,2,4]triazolo[4,3-a]pyridin-7-yl)propanoic Acid] | 8.28 |
| > 9.00 | Cc1ccc([C@@H](c2ccn3c(C(F)(F)F)nnc3c2C)C(C)(C)C(=O)O)cc1CN1CC2(CNC2)Oc2ncccc2S1(=O)=O (single isomer, unassigned) [Example 338, (*S)-3-(3-((1′,1′-Dioxidospiro[azetidine-3,4′-pyrido[2,3-b][1,4,5]oxathiazepin]-2′(3′H)-yl)methyl)-4-methylphenyl)-2,2-dimethyl-3-(8-methyl-3-(trifluoromethyl)-[1,2,4]triazolo[4,3-a]pyridin-7-yl)propanoic Acid] | 7.88 |

Reference: patent publication US10947252B2, “Inhibitors of KEAP1-Nrf2 protein-protein interaction” (Janssen Pharmaceutica NV, priority 2018, dated 2021)
